Experiment in all cases: NCI tumour cell line growth inhibition, 48 h
Experiment [1] has as its system HT29 colon.
Experiment [2] deals with MOLT-4 leukemia.
In experiment [3] the test system is NCI-H460 lung.
Experiment [4] deals with OVCAR-5 ovarian.
The subject of experiment [5] is SF-295 CNS.
In experiment [6] the test system is SK-MEL-2 melanoma.
Experiment [7] relates to SK-MEL-28 melanoma.
In experiment [8] the test system is SN12C renal.
For experiment [9], the system named is SK-MEL-5 melanoma.
Experiment [10] relates to HS 578T breast.

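Tested at 5 concentrations; 48 h exposure; 96-well plates; endpoints linearly interpolated, else capped at highest concentration. Here, GI50 denotes the concentration required for 50% inhibition of growth. TGI: total growth inhibition.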

For the compound `CCC(=O)C12OC3OC(C)(C)OC3C1OC(C)(C)O2` (stereo not drawn), the TGI in [1], in experiment [2], in [3], in experiment [4], in [5] and in [6] was above 100 µM in each case. Moreover, the TGI in [7] and in [8] was above 100 µM each time.

Take `CC/C=C\C/C=C\C/C=C\CCCCCCCC(=O)OCC(O)CO` (stereo not drawn): the TGI in [1] is above 100 µM; in [2], above 63.5 µM; in experiment [3], above 100 µM; in [4], above 100 µM; in [5] it was above 100 µM; in [6] it was above 100 µM. Further, the TGI in experiment [7], in experiment [9] and in [8] was above 100 µM each time.

With `Cc1cccc(C)c1NC(=O)/C(=N/NC(N)=S)C(C)C(=O)c1ccc(Cl)cc1` (stereo not drawn), the TGI in experiment [1], in experiment [2], in experiment [3], in experiment [4], in experiment [5] and in experiment [6] was above 100 µM each time. The TGI in experiment [7], in experiment [9] and in experiment [8] was above 100 µM throughout.

In the case of `N#CC(C#N)=C1NC(=O)CC(=O)N1`, the TGI in experiment [1], in experiment [2], in experiment [3], in experiment [4], in experiment [5] and in [9] was above 100 µM in each case. For the same compound, the TGI in experiment [8] is above 100 µM.

Regarding `COc1cc2nc(N3CCCC3)nc(NCCc3ccccc3)c2cc1OC`, the GI50 was 1810 nM in experiment [1]; 2430 nM in [2]; 1.86 µM in [3]; 1.72 µM in [4]; 1800 nM in experiment [5]; 2.02 µM in experiment [6]. The figures for the GI50 in [7], in experiment [9] and in experiment [8] were 1660 nM, 1.7 µM and 1.87 µM, respectively. For the same compound, the TGI in experiment [1] is 4.19 µM; in [2], 7.69 µM; in [3] it was 3.54 µM; in experiment [4] it was 3.21 µM; in [5], 3.43 µM; in experiment [6], 3.91 µM. For the same compound, the values for the TGI in [7], in experiment [9] and in experiment [8] were 3.03 µM, 3.15 µM and 3.79 µM, respectively.

As to `Fc1ccc(C2SCc3nc4ccccc4n32)c(F)c1` (stereo not drawn), the TGI in [1], in experiment [2], in experiment [3], in experiment [4], in experiment [5] and in experiment [6] was above 100 µM in each case. The values for the TGI in experiment [9] and in experiment [8] were 79.6 µM and above 100 µM, respectively.

For the compound `CC(=O)OC12C=C(C)C(C(C)C1)C1C(=O)N(CCN3CCOCC3)C(=O)C12` (stereo not drawn), the GI50 in experiment [10] is above 100 µM; in experiment [1], above 100000 nM; in [2], above 100000 nM; in experiment [4], above 100 µM; in [5], above 100000 nM; in [6] it was above 100 µM. Moreover, the GI50 in experiment [9] and in experiment [8] was above 100 µM in each case. Besides, the TGI in [10], in experiment [1], in [2], in experiment [4], in experiment [5] and in experiment [6] was above 100 µM in each case. Further, the TGI in experiment [9] and in [8] was above 100 µM each time.

On to `COc1cc(C(=O)C/C(CCC(=O)Nc2ccccc2[N+](=O)[O-])=N\NC(N)=O)ccc1O`, for which the TGI in [1], in experiment [2], in experiment [3], in experiment [4], in [5] and in experiment [6] was above 100 µM each time. Further, the TGI in experiment [7], in [9] and in experiment [8] was above 100 µM each time.

With `CCN(CC)CC1c2ccccc2C(CNc2ccccc2)N1C` (stereo not drawn), the TGI in experiment [2], in experiment [3], in experiment [4], in [5], in experiment [6] and in experiment [7] was above 100 µM in each case. The TGI in [9] and in experiment [8] was above 100 µM throughout.

As for `O=C(/C=C\c1cccc([N+](=O)[O-])c1)/C=C/c1cccc([N+](=O)[O-])c1`, the GI50 was 1400 nM in experiment [1]; 6.61 µM in experiment [3]; 19.7 µM in experiment [4]; 2370 nM in [5]; 19.5 µM in experiment [6]; above 100000 nM in experiment [7]. The GI50 in experiment [9] is 61.3 µM; in experiment [8], 67 µM. For the same compound, the TGI in [1] was 3.32 µM; in [3], above 100 µM; in experiment [4], above 100 µM; in experiment [5] it was 7.77 µM; in experiment [6], 49.4 µM; in experiment [7] it was above 100 µM. The TGI in [9] and in [8] was above 100 µM each time.

With `CC1(O)C=CC(=O)C=C1`, the TGI in experiment [1] is above 100 µM; in experiment [2] it was above 72.7 µM; in experiment [3] it was 44.9 µM; in experiment [4] it was above 100 µM; in [5] it was above 100 µM; in [6], 56 µM. Moreover, the values for the TGI in experiment [7], in experiment [9] and in [8] were 38.5 µM, above 89.4 µM and above 100 µM, respectively.

For the compound `COc1ccc(-c2cc(Cc3cccs3)c(=O)[nH]n2)cc1`, the TGI is above 100 µM in [1]; above 100 µM in experiment [4]; above 100 µM in experiment [5]; above 100 µM in experiment [6]; above 100 µM in experiment [7]; 49.5 µM in [9]. Further, the TGI in experiment [8] is above 100 µM.

In the case of `CC(=O)Nc1ccc(SC#N)c2c(NC(C)=O)cccc12`, the TGI was above 100 µM in experiment [1]; above 82.1 µM in experiment [2]; above 100 µM in experiment [3]; above 100 µM in experiment [4]; above 100 µM in experiment [5]; above 100 µM in [6]. For the same compound, the TGI in [7], in [9] and in [8] was above 100 µM in each case.

Values taken from PubChem BioAssay (NCI).
